In patent US8975371B2, “Melanoma antigen peptide and uses thereof” (INSERM (Institut National de la Sante et de la Recherche …, priority 2008, dated 2015):
Read-outs that look alike come from different tables or passages of the source.

Key:
Type in all cases: cell-based, human
[1] = system: M170.51 CTL clone / peptide-pulsed T2 cells; test: Cytotoxicity of M170.51 CTL clone against peptide-pulsed T2 cells (4 h 51Cr release); details: peptide loaded on T2 cells
Method: (§1) (A) Structure of meloe cDNA. Black boxes correspond to ORFs tested for recognition by the CTL clone. (B) M170.48 and M170.51 TNF responses to COS-7 cells (E/T ratio 1/3) transfected with indicated plasmids. T cell clone was added 2 days after the transfection and the CTL clone reactivity was assessed by a TNF release assay. (C) Amino acid sequences of the ORF 1230-1370 and the ORF 285-404 of meloe isolated from M134 cDNA library. (D and E) Cytotoxicity of M170.48 CTL clone (D) and M170.51 CTL clone(E) against peptide-pulsed T2 cells. Target cells were chromium labeled for 60 min and incubated for 30 min with a range of the indicated peptides. T cell clones were added at an E/T ratio of 10/1 and chromium release was then measured after a 4 h incubation period.
(§2) Cytotoxic activity of T cells was measured in a standard 4-h assay against ^51Cr-labeled cells (peptide-loaded T2 cells or tumor cell lines) (23). […] After staining, cells were resuspended in PBS and analyzed on a LSR flow cytometer using Cell Quest software. […]

[2] = system: MELOE-1 specific T cell clones / peptide-loaded T2 cells; test: Relative avidity of MELOE-1 specific T cell clones, 4-h 51Cr assay against peptide-loaded T2 cells
Method: Cytotoxicity of MELOE-1 specific CTL clones against peptide-pulsed T2 cells. Target cells were chromium labeled for 60 min and incubated for 30 min with a range of the MELOE-136-44 peptide. T cell clones derived from healthy donors (A), melanoma patients PBMC (B) and TIL (C) were added at an E/T ratio of 10/1 and chromium release was then measured after a 4 h incubation period. (D) Mean EC50 of the MELOE-1 specific T cell clones in response to the MELOE-136-44 peptide, according to their origin. EC50 were compared using statistical analysis done with InStat 2.01. Data were analyzed using Kruskal-Wallis comparison test. *p=0.019, considered significant.
The relative avidity of […] specific T cell clones and their anti-tumor reactivity was measured respectively in a standard 4-h assay against ^51Cr-labeled peptide-loaded T2 cells and towards HLA-A2 melanoma cell lines. Briefly, target cells (peptide pulsed-T2 or melanoma cells) were incubated with 100 μCi Na2^51CrO4 (Oris Industrie, Gif-sur-Yvette, France) at 37° C. for 1 h. For peptide recognition assays, T2 cells were preincubated with a range of […] peptide concentrations for 1 h at 37° C. […] Data were analyzed using Kruskal-Wallis comparison test, followed by Dunn'post test. […]

[3] = system: M170.48 CTL clone / peptide-pulsed T2 cells; test: Cytotoxicity of M170.48 CTL clone against peptide-pulsed T2 cells (4 h 51Cr release); details: peptide loaded on T2 cells
Method: as §1, §2

**Q.** For RCPPKPPLA, which “recognition by M170.51 T cell clone” value [1] is on record?
**A.** The value was “recognized”.

**Q.** And the EC50 ([1]; M170.51 CTL clone, E/T ratio 10/1, 4 h chromium release, read-out: half maximal lysis (converted))?
**A.** Its EC50 is 50 nM.

**Q.** Which results are given for TLNDECWPA?
**A.** EC50 ([2]; healthy donor clonotype HD1.21, read-out: EC50 of clonotype HD1.21): 10 nM; EC50 ([2]; healthy donor clonotype HD3.38, read-out: EC50 of clonotype HD3.38): 1 nM; recognition by M170.48 T cell clone [3]: recognized; EC50 ([3]; M170.48 CTL clone, E/T ratio 10/1, 4 h chromium release, read-out: half maximal lysis): 10 nM
